Tests used:
particulate sialidase = conditions: Sandhoff et al 1976; called questionable, highly impure enzymes; cited from earlier work
Urease EC 3.5.1.5 = target: T1, Urease EC 3.5.1.5 (Canavalia ensiformis, UniProt P07374); assay: Urea Nitrogen Diagnostic Kit (640) stop-flow gas run; type: biochemical, jack beans; conditions: 37° C.; relative to air
T1 construct: purchased Sigma 640-5; host or cells: jack beans
Text: Urea Nitrogen Diagnostic Kit (640) Protocol For Gas Run
Urea Nitrogen (Sigma Diagnostic Kit, Procedure No. 640)
Sigma No. 640-5 Buffered Urease from jack beans 100 units when prepared according to directions (3.33 units/ml). Sodium azide added as preservative. Store in refrigerator. Note expiration date: JUNE 1993
PRINCIPLE: Urea is hydrolyzed by urease to ammonia and carbon dioxide. [drawing 6] Ammonia then reacts with alkaline hypochlorite and phenol in the presence of a catalyst, sodium nitroprusside [Na2 Fe[CN]5 NO.2H2 O], to form indophenol. The concentration of ammonia is directly proportional to the absorbance of indophenol, which is measured spectrophotometrically at 570 nm. [drawing 7] Note: Ammonia free water (DI H2 O should be ok) is necessary for this procedure, Make sure to rinse everything with DI H2 O before use, If the blank has more than a trace of blue color ammonia contamination should be suspected.
PROCEDURE FOR STOP-FLOW GAS EXPERIMENT
In a 100 cc serum vial place 20 ml Urease soln (Soln A1). Stopper, seal and crimp. Bubble 400 ml of gas through (using the 500 ml gas-tight syringe). Superimpose 100 ml of gas, vial will be under positive pressure.
Sample 0.4 ml Urea Nitrogen Standard Solution 1 from gassed 3 cc vial. Add to the gassed 100 cc serum vial (containing 20 ml Soln A1). Start stop watch, gently swirl vial.
Take 0.5 ml samples every minute. Place the 0.5 ml sample into the corresponding 10 cc vial to stop the reaction. Inject immediately 1 ml Alkaline Hypochlorite Solution followed by 5 ml D.I. H2 O.
Let the 15×10 cc vials sit and develop color for 30 minutes. a 1 wavelength "scan" (see software) should be run: 3 ml per cuvette. Read vs a blank of 3 ml Soln B.
Spectrophotometric study procedure: 37° C.
(§1) The following consists of example results obtained from gas runs. Negative numbers indicate an inhibition of the enzyme activity. Positive numbers indicate an enhancement of the enzyme activity

[1] = system: Acid Phosphatase (EC 3.1.3.2); assay: Acid Phosphatase Sigma Kit No. 435-A gas run; type: biochemical, Potato; conditions: for rate of the acid phosphatase-catalyzed reaction (FIG. 4): 10° C., saturation with the gas; for % Rate Difference / % Yield Difference: relative to air
Text: Acid Phosphatase Sigma Kit. No. 435-A Gas Run Protocol
(Orthophosphoric-monoester phosphohydrolase [acid optimum)]; EC 3.1.3.2)
From Potato 0.8 Units/mg solid (1 g solid) Lot# 17F-7285
SIGMA Diagnostic Kit 435-A (Procedure No. 435)
PRINCIPLE [drawing 3] Acid phosphatase [ACP] catalyzes the hydrolysis of α-Naphthyl phosphate to a-Naphthol and inorganic phosphate. α-Naphthol immediately reacts with fast red TR salt to produce a yellow chromophore with an absorbance maximum at 405 nm. The rate of increase in absorbance at 405 nm is directly proportional to ACP activity. […]
as §1

[2] = system: Alkaline Phosphatase (EC 3.1.3.1); assay: Alkaline Phosphatase [ALP/AP] Sigma Kit No. 245-10 gas run; type: biochemical, Chicken; set-up: Rate Difference / Yield Difference: unit not given here; conditions: for rate of the alkaline phosphatase-catalyzed reaction (FIGS. 1-3): 10°, 25° and 35° C., saturation with the gas; for Yield Difference / Rate Difference: relative to air
Text: Alkaline Phosphatase [ALP/AP] Sigma Kit. No. 245-10 Gas Run Protocol
Phosphatase, Alkaline P-8008
(Orthophosphoric-monoester phosphohydrolase [alkaline optimum]; EC 3.1.3.1)
From Chicken Intestine 5.1 Units/mg solid (1 g solid) Lot# 115F-3806
SIGMA Diagnostic Kit 245-10 (Procedure No. 245)
PRINCIPLE [drawing 1] The hydrolysis occurs at alkaline pH. The formation of p-nitrophenol can be observed as an increase in absorbance at 405 nm. The rate of increase directly proportional at ALP activity. […]
as §1

[3] = target: T2, Alcohol dehydrogenase EC 1.1.1.1 (Saccharomyces cerevisiae, UniProt P00330); assay: Alcohol [Ethanol] Diagnostic Kit Sigma No. 332-UV gas run; type: biochemical, yeast; conditions: relative to air
T2 construct: purchased Sigma 330-1; host or cells: yeast
T2 sequence (P00330 1-348): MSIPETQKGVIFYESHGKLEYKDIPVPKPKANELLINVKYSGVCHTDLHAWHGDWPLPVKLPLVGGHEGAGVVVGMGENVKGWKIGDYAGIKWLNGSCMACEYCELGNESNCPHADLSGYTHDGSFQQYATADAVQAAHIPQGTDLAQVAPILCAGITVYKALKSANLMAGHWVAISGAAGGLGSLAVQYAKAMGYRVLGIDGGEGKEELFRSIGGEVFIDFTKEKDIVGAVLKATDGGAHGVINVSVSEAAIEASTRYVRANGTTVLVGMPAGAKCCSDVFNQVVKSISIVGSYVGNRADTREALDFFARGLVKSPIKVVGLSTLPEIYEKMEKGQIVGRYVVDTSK
Procedure: Alcohol [Ethanol] Diagnostic Kit Sigma Diagnostic Kit No. 332-UV Gas Run Protocol
SIGMA Diagnostic Kit 332-BT (Procedure No. 332-UV)
The NAD-ADH vials, when reconstituted according to the directions, contain approximately the following concentrations of active ingredients: NAD, 0.6 μmol/ml, alcohol dehydrogenase [yeast], 50 U/ml, and stabilizers. […]
Step 1: Prepare diluted Ethanol Standard Solution by mixing 4.0 ml Glycine Buffer Reagent (332-9) with 0.5 ml Ethanol Standard Solution (330-20). Cap until ready for use. 4 substrate concentrations: […]
Inject 1×3 cc of gas in silicone-sealed cuvettes No 2nd and 3rd 3 cc gas injection: NAD-ADH solution squirts back in the syringes because of foam formation due to bubbling. Store cuvettes overnight in refrigerator (0°-5° C.) under two 3 cc syringes, in the dark. […]
Remove the G1 cuvettes out from the fridge. Bubble 2×3 cc of gas. Place cuvettes (under two 3 cc syringes filled up with the appropriate gas) in cell holder.
Sample diluted Ethanol Standard Solution with 1 cc syringes, pick syringes into silicone, push plungers simultaneously, run timedrives.
as §1

[4] = independent of oxygen partial pressure; Schreiner; cited from earlier work
[5] = 10 °C, positive = enhancement, negative = inhibition of enzyme activity

T1 sequence (P07374 whole entry, looked up): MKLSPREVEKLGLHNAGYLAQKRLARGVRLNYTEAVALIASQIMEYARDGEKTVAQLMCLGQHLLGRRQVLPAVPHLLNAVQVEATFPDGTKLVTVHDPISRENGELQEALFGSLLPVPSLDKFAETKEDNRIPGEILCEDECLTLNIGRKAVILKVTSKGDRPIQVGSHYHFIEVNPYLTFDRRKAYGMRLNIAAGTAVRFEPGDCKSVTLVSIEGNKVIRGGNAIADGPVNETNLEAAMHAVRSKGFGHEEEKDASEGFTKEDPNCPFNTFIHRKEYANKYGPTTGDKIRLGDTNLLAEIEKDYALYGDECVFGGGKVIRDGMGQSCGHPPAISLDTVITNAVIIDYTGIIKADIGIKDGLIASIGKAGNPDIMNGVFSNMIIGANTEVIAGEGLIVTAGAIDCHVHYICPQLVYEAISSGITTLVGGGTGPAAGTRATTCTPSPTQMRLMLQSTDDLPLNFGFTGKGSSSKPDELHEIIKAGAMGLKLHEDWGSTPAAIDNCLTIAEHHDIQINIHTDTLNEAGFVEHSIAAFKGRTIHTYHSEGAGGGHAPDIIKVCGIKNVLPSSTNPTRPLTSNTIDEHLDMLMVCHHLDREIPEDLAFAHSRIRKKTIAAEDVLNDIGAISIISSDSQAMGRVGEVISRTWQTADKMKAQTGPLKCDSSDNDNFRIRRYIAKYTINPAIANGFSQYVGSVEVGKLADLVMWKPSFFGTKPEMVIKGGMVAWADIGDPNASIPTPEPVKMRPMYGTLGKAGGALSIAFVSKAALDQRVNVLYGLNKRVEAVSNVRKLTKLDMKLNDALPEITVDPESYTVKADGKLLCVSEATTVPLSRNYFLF

For [Xe] [Xe, xenon], the “effect on activity of particulate sialidase” value (“effect on activity” below) (particulate sialidase) is listed as “enhance the activity”, the “% Rate Difference” value (Urease EC 3.5.1.5) is listed as 9.4% and the “% Yield Difference” value (Urease EC 3.5.1.5) is listed as 9.4%. For the same compound, the “rate of the acid phosphatase-catalyzed reaction (FIG. 4)” value (“rate … (FIG. 4)” below) [1] was “improvement of the rate”, the “% Rate Difference” value ([1]; 10 °C) was 42.2% and the “% Yield Difference” value ([1]; 10 °C) was 39.2%. The “% Rate Difference” value ([1]; 25 °C) was 21.1%, the “% Yield Difference” value ([1]; 25 °C) was 14.7% and the “% Rate Difference” value ([1]; 35 °C) was 5.6%. The “% Yield Difference” value ([1]; 35 °C) was 4.2%, the “rate of the alkaline phosphatase-catalyzed reaction (FIGS. 1-3)” value (“rate … (FIGS. 1-3)” for short) [2] was “improvement of the rate” and the “Yield Difference” value ([2]; 10 °C) was 16.7. The “Rate Difference” value [2, 5] was 16.7, the “Rate Difference” value ([2]; 25 °C) was 18.2 and the “Yield Difference” value ([2]; 25 °C) was 18.2. The “Rate Difference” value ([2]; 35 °C) was 7.3, the “Yield Difference” value ([2]; 35 °C) was 7.3 and the “% Rate Difference” value ([3]; 0.24% Ethanol, 10° C.) was 7.5%. The “% Yield Difference” value ([3]; 0.24% Ethanol, 10° C.) was 10.0%, the “% Rate Difference” value ([3]; 0.24% Ethanol, 25° C.) was -10.4% and the “% Yield Difference” value ([3]; 0.24% Ethanol, 25° C.) was -8.0%. For the same compound, the “% Rate Difference” value ([3]; 0.32% Ethanol, 10° C.) was 15.6% and the “% Yield Difference” value ([3]; 0.32% Ethanol, 10° C.) was 10.2%.
With [Ar] [Ar, argon] the “% Rate Difference” value (Urease EC 3.5.1.5) was 9.4%, the “% Yield Difference” value (Urease EC 3.5.1.5) was 9.4% and the “rate … (FIG. 4)” value [1] was “improvement of the rate”. The “% Rate Difference” value ([1]; 10 °C) was 8.4%, the “% Yield Difference” value ([1]; 10 °C) was 9.4% and the “% Rate Difference” value ([1]; 25 °C) was 12.2%. For the same compound, the “% Yield Difference” value ([1]; 25 °C) was 9.2%, the “% Rate Difference” value ([1]; 35 °C) was -1.4% and the “% Yield Difference” value ([1]; 35 °C) was -0.42%. For the same compound, the “rate … (FIGS. 1-3)” value [2] was “improvement of the rate”, the “Yield Difference” value ([2]; 10 °C) was 33.3 and the “Rate Difference” value [2, 5] was 33.3. For the same compound, the “Rate Difference” value ([2]; 25 °C) was 3.0, the “Yield Difference” value ([2]; 25 °C) was 3.0 and the “Rate Difference” value ([2]; 35 °C) was 30.4. For the same compound, the “Yield Difference” value ([2]; 35 °C) was 30.4, the “% Rate Difference” value ([3]; 0.08% Ethanol, 10° C.) was 8.8% and the “% Rate Difference” value ([3]; 0.24% Ethanol, 10° C.) was 9.0%. The “% Yield Difference” value ([3]; 0.24% Ethanol, 10° C.) was 8.3%, the “% Rate Difference” value ([3]; 0.24% Ethanol, 25° C.) was -9.4% and the “% Yield Difference” value ([3]; 0.24% Ethanol, 25° C.) was -6.6%. For the same compound, the “% Rate Difference” value ([3]; 0.32% Ethanol, 10° C.) was 5.2% and the “% Yield Difference” value ([3]; 0.32% Ethanol, 10° C.) was 2.3%.
For [Ne] [Ne, neon], the “% Rate Difference” value (Urease EC 3.5.1.5) was 3.1%, the “% Yield Difference” value (Urease EC 3.5.1.5) was 3.1% and the “% Rate Difference” value ([3]; 0.32% Ethanol, 10° C.) was 12.1%. For the same compound, the “% Yield Difference” value ([3]; 0.32% Ethanol, 10° C.) was 3.9%.
In the case of [N-]=[N+]=O [nitrous oxide], the “inhibition per atmosphere of added gas” value [4] is listed as 1.9 % inhibition per atmosphere and the “effect on activity” value (particulate sialidase) is listed as “enhance the activity”.
For [Kr] [Kr, krypton], the “% Rate Difference” value (Urease EC 3.5.1.5) was 0.0%, the “% Yield Difference” value (Urease EC 3.5.1.5) was 0.0% and the “rate … (FIG. 4)” value [1] was “improvement of the rate”. For the same compound, the “% Rate Difference” value ([1]; 10 °C) was 18.1%, the “% Yield Difference” value ([1]; 10 °C) was 16.0% and the “% Rate Difference” value ([1]; 25 °C) was 13.3%. The “% Yield Difference” value ([1]; 25 °C) was 7.3%, the “% Rate Difference” value ([1]; 35 °C) was 1.4% and the “% Yield Difference” value ([1]; 35 °C) was 1.3%. For the same compound, the “rate … (FIGS. 1-3)” value [2] was “improvement of the rate”, the “Yield Difference” value ([2]; 10 °C) was 1.7 and the “Rate Difference” value [2, 5] was 1.7. For the same compound, the “Rate Difference” value ([2]; 25 °C) was 9.1, the “Yield Difference” value ([2]; 25 °C) was 9.1 and the “Rate Difference” value ([2]; 35 °C) was 4.3. For the same compound, the “Yield Difference” value ([2]; 35 °C) was 4.3, the “% Rate Difference” value ([3]; 0.08% Ethanol, 10° C.) was 2.9% and the “% Rate Difference” value ([3]; 0.24% Ethanol, 10° C.) was 11.9%. The “% Yield Difference” value ([3]; 0.24% Ethanol, 10° C.) was 14.2%, the “% Rate Difference” value ([3]; 0.24% Ethanol, 25° C.) was -9.4% and the “% Yield Difference” value ([3]; 0.24% Ethanol, 25° C.) was -4.4%. For the same compound, the “% Rate Difference” value ([3]; 0.32% Ethanol, 10° C.) was 8.6% and the “% Yield Difference” value ([3]; 0.32% Ethanol, 10° C.) was 4.7%.
In the case of FC(F)(F)C(Cl)Br (centres unmarked) [halothane], the “effect on activity” value (particulate sialidase) is listed as “enhance the activity”.
In the case of N#N [N2, Nitrogen, reference compound], the “% Rate Difference” value (Urease EC 3.5.1.5) is reported as 0.0%, the “Yield Difference” value ([2]; 10 °C) is reported as 0 and the “Rate Difference” value [2, 5] is reported as 0. For the same compound, the “Rate Difference” value ([2]; 25 °C) was 0, the “Yield Difference” value ([2]; 25 °C) was 0 and the “Rate Difference” value ([2]; 35 °C) was 0. The “Yield Difference” value ([2]; 35 °C) was 0.

Source: patent publication US5382525A, “Method of effecting increased performance of diagnostic enzyme reaction systems using noble gases” (American Air Liquide, priority 1992, dated 1995)
